Results taken from patent publication US20250049904A1, “IMMUNOSTIMULATORY COMPOSITIONS” (VICTORIA LINK LIMITED, priority 2021, published 2025).
Entries after “also recorded” stand apart in the source; their conditions may differ.

What was measured:
[1] = tested on: tissue-resident memory T cells (TRM cells); assay: LPX-mRNA vaccination of mice i.v.; antigen-specific TRM, TEM and TCM cells in liver and spleen by flow cytometry; format: in vivo, C57BL/6 mice
[2] = tested on: tissue-resident memory T cells (TRM cells); assay: as above; format: in vivo, C57BL/6 mice; remark: listed apart in the source
Protocol: FIG. 1 provides a graphical representation showing that LPX-mRNA vaccines containing CI058 induce high levels of liver TRM cells. Liposomes were prepared with DOTMA and DOPE lipids and complexed with mRNA encoding chicken ovalbumin (OVA) to give vaccine LPX-mOVA. Additional vaccines were prepared by including either the prototypical NKT cell agonist α-GalCer (LPX-mOVA-α-GalCer) or the derivative CI058, which has BODIPY attached via an —S in the 6 position of the galactose (LPX-mOVA-CI058). Recipient C57BL/6 mice were transferred 50,000 naïve OVA-specific TCR-transgenic CD8+ T cells (OT-I cells) to enhance the precursor frequency of antigen-specific T cells to aid detection of vaccine-induced responses. A day later, groups of mice (n=5-6) were vaccinated intravenously (0.08 nmol) with the different vaccines; a naive mouse was left untreated. After 28 days, mice were killed and liver and spleen collected for analysis of induced T cell response by flow cytometry. Antigen-specific cells were identified using fluorescent MHC/peptide tetramers containing the targeted CD8^+ T cell epitope recognised by OT-I cells, and expression of Ly5.1, a congenic marker expressed by the OT-I mouse strain and not recipient C57BL/6 mice. The antigen-specific cells were further characterised as resident-memory T cells (TRM cells; CD8^+ Ly5.1^+ […] CD62L^low cells), effector memory T cells (TEM cells; CD8^+ Ly5.1^+ CD44^+ CD69^− CD62L^low cells) or central memory cells (TCM cells; CD8^+ Ly5.1^+ CD44^+ CD69^− CD62Lhigh cells). (A) Percentages of TRM, TEM and TCM OT-I cells in each treatment group in liver. Mean±SEM for each T cell subset are shown; statistical analysis relates only to pairwise comparisons of the percentage of TRM cells between the treatment groups. Black bars: TRM cells; white bars: TEM cells; grey bars: TCM cells. *P<0.05, **P<0.01, ***P<0.001, ****P<0.0001. One-way ANOVA. (B) Percentages of RM, TEM and TCM OT-I cells in each treatment group in spleen. (C) Mean number of TRM cells in liver for each treatment group (±SEM); dots represent individual mice. Black bars: TRM cells; white bars: TEM cells; grey bars: TCM cells. *P<0.05, **P<0.01, ***P<0.001, ****P<0.0001. One-way ANOVA.
Dose response of LPX-mOVA-α-GalCer versus LPX-mOVA-CI058 vaccines. Analysis was in C57BL/6 mice, without transfer of OT-I cells, so endogenous T cell responses were monitored on a normal T cell repertoire. Groups of 5 mice were used, and vaccines were administered intravenously. After 28 days, mice were killed and liver tissue collected for analysis of induced T cell response by flow cytometry. Antigen-specific cells were identified using fluorescent MHC/peptide tetramers, and further characterised as resident-memory T cells (TRM CD8^+ CD44^+ CD69^+ CXCR6^+ CD49a^+ CD62L^low cells), effector memory T cells (TEM CD8^+ CD44^+ CD69^− KLRG1^+ CXCR3^+ CD62L^low cells) or central memory cells (TCM CD8^+ CD44^+ CD69^− CD62L^high cells). At the same timer, NKT cells in the liver were also evaluated using fluorescent CD1d/α-GalCer tetramers. These were characterised for expression of different markers of activation, including PD-1 (only the latter is shown here). White circles: LPX-mOVA-α-GalCer; black circles: LPX-mOVA-CI058. (A) Graph showing mean number of TRM cells in liver for each treatment group (±SEM) overdose range. ****P<0.0001. (B) Graph showing mean level of expression of the “invariant” NKT cell-associated TCR for each treatment group (±SEM), defined as level of binding of fluorescent CD1d/α-GalCer tetramers and expressed as mean fluorescence index. ****P<0.0001 (C) Graph showing mean level of expression of PD-1 on NKT cells for each treatment group (±SEM). **P<0.01
To examine whether a prodrug mechanism is involved in enhanced TRM cell induction, LPX-mOVA-CI058 vaccines were compared to vaccines containing different NKT cell agonist prodrugs. […]

With `CCCCCCCCCCCCCCCCCCCCCCCCCC(=O)N[C@@H](CO[C@H]1O[C@H](CSCC(=O)Nc2ccc(C3=C4C(C)=CC(C)=[N+]4[B-](F)(F)n4c(C)cc(C)c43)cc2)[C@H](O)[C@H](O)[C@H]1O)[C@H](O)[C@H](O)CCCCCCCCCCCCCC` [CI058, (2S,3S,4R)-1-(6-Deoxy-6-((2-((4-(5,5-difluoro-1,3,7,9-tetramethyl-5H-4λ4,5λ4-dipyrrolo[1,2-c:2′,1′-f][1,3,2]diazaborinin-10-yl)phenyl)amino)-2-oxoethyl)thio)-α-D-galactopyranosyloxy)-2-hexacosanoylamino-3,4-octadecandiol] the “overall TRM cell accumulation in the liver” value ([1]; agonist in LPX-mOVA vaccine, OT-I transfer, liver 30 days later) was “significantly better at inducing accumulation of TRM cells”, the “proportion of liver TRM among all vaccine-induced antigen-specific T cells (TRM cell-inducing capability)” value ([1]; agonist in LPX-mOVA vaccine, OT-I transfer, liver 30 days later, relative to α-GalCer vaccine) was “superior liver TRM cell-inducing agonist” and the “proportion of antigen-specific TRM cells, liver vs spleen” value ([1]; malaria model vaccination, LPX-mOVA with CI058, 30 days) was “significant changes in proportion of antigen-specific TRM cells, which is more pronounced in liver compared to spleen”. For the same compound, the “overall level of T cell accumulation in liver” value ([2]; LPX vaccines with vs without CI058) was “higher overall levels of T cell accumulation in liver”, the “accumulation (population size) of TRM cells in liver” value ([2]; LPX-mOVA vaccines i.v., 28-30 days, compared to vaccines with α-GalCer or without agonist) was “significantly larger populations of TRM cells in the liver tissue; also recorded: significantly enhanced populations of liver TRM cells; also recorded: also enhanced” and the “proportion of TRM cells among antigen-specific T cells in liver and spleen” value ([2]; LPX-mOVA vaccines i.v., OT-I cell transfer, 28 days after vaccination) was “enhanced in both tissues, although is consistently more pronounced in liver; also recorded: significantly biased towards TRM cells”. The “peak level of liver TRM cells in dose response” value ([2]; LPX-mOVA-CI058 vs LPX-mOVA-α-GalCer, no OT-I transfer, day 28) was “significantly higher than achieved with vaccines with α-GalCer”, the “lower dose giving parity in liver TRM cell levels with α-GalCer vaccine” value ([2]; dose response, LPX-mOVA-CI058 vs LPX-mOVA-α-GalCer, no OT-I transfer, day 28) was 10 fold and the “liver TRM cell induction, vaccine encoding malaria antigen RPL6” value ([2]; endogenous T cell response, no T cell transfer, 30 days) was “enhancing liver TRM cell induction”.
